Data set [1] in a line: Volume of distribution in Sprague-Dawley rat at 1 mg/kg, iv measured up to 24 hrs by LC-MS/MS analysis. The data set is classed as ADME, organism-based. The conditions noted are these: in vivo.
Data set [2] concerns the target Tyrosine-protein kinase ITK/TSK (Homo sapiens, UniProt Q08881). In words: Inhibition of ITK (unknown origin).
Data set [3] has as its target RAF proto-oncogene serine/threonine-protein kinase (Homo sapiens, UniProt P04049). The experiment in a line: Inhibition of RAF1 (unknown origin).
The target of data set [4] is Tyrosine-protein kinase CSK (Homo sapiens, UniProt P41240). The experiment in a line: Inhibition of CSK (unknown origin).
Data set [5] has as its target Ribosomal protein S6 kinase beta-1 (Homo sapiens, UniProt P23443). The experiment in a line: Inhibition of p70S6K (unknown origin).
For data set [6] the following is noted: pampa, pH 6.5, 2 h.
Description: Permeability of the compound in pH 6.5 incubated for 2 hrs by PAMPA based HPLC analysis
The target in data set [7] is Dual specificity mitogen-activated protein kinase kinase 1 (Homo sapiens, UniProt Q02750). In words: Inhibition of MAP2K1 (unknown origin).
The nature of data set [8]: Half life in Sprague-Dawley rat at 1 mg/kg, iv measured up to 24 hrs by LC-MS/MS analysis. The conditions noted are these: in vivo. The format is ADME, organism-based.
In data set [9] the target is Proto-oncogene tyrosine-protein kinase Src (Homo sapiens, UniProt P12931). In words: Inhibition of SRC (unknown origin).
For data set [10], the system named is Rattus norvegicus. In words: Immunosuppressive activity in Lewis rat transplanted with ACI rat cardiac tissue assessed as reduction in graft rejection by measuring mean survival days at 0.25 mg/kg, po administered for 14 consecutive days co-treated with tacrolimus (reference value: 10 days). The format is functional. As to conditions: time 14 day.
Data set [11] addresses Ephrin type-A receptor 2 (Homo sapiens, UniProt P29317). The experiment in a line: Inhibition of EphA2 (unknown origin).
The test system of data set [12] is Rattus norvegicus. In words: Immunosuppressive activity in Lewis rat transplanted with ACI rat cardiac tissue assessed as reduction in graft rejection by measuring mean survival days at 0.1 mg/kg, po administered for 14 consecutive days co-treated with tacrolimus (reference value: 10 days). The data set is classed as functional. As to conditions: time 14 day.

Data set [13] in a line: Tmax in Sprague-Dawley rat at 1 mg/kg, po measured up to 24 hrs by LC-MS/MS analysis. The data set is classed as ADME, organism-based. The conditions noted are these: in vivo.
The target in data set [14] is Tyrosine-protein kinase JAK2 (Homo sapiens, UniProt O60674).
Description: Inhibition of human JAK2 kinase domain using biotin-Lyn-substrate-2 as substrate incubated for 1 hr by ELISA

Chain of Dual specificity mitogen-activated protein kinase kinase 1 (Q02750 whole entry): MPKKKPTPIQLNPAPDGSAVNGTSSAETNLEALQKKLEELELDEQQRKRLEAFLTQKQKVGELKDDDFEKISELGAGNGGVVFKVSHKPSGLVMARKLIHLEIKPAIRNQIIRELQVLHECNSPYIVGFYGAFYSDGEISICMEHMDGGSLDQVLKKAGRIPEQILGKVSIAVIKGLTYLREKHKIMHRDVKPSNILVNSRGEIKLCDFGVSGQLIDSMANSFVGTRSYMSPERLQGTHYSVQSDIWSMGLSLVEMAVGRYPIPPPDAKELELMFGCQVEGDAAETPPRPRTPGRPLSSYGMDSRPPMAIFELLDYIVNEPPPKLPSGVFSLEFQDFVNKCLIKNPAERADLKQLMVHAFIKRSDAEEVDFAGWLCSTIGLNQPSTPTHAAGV
Chain of Tyrosine-protein kinase CSK (P41240 whole entry): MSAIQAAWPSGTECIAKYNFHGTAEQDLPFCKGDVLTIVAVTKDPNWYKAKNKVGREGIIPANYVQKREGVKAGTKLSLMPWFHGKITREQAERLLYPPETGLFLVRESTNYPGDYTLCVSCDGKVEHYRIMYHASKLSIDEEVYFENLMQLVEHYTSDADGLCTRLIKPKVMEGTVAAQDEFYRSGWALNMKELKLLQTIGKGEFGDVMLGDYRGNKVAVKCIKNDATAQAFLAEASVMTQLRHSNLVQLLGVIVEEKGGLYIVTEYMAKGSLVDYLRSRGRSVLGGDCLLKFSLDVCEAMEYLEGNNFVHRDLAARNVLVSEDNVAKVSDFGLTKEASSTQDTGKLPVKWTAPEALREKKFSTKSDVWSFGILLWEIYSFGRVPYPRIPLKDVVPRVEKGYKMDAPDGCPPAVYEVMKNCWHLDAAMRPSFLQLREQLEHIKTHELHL
Chain of RAF proto-oncogene serine/threonine-protein kinase (P04049 whole entry): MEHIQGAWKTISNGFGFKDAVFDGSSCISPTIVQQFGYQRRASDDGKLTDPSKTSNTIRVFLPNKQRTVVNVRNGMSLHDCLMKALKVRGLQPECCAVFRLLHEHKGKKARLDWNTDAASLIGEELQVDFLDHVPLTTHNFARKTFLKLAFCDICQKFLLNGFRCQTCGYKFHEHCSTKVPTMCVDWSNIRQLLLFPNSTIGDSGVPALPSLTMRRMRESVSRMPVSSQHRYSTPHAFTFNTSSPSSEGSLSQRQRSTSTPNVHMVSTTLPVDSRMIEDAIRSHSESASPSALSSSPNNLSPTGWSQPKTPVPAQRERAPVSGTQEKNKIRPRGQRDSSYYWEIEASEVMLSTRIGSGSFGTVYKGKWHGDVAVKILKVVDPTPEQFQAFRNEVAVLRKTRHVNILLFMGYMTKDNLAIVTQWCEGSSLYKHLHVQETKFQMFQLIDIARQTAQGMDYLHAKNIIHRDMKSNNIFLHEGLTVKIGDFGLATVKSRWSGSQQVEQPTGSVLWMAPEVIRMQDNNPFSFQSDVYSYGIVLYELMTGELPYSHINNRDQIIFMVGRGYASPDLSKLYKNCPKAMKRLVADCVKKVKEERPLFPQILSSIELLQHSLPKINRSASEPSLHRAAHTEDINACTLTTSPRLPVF
Chain of Ephrin type-A receptor 2 (P29317 whole entry): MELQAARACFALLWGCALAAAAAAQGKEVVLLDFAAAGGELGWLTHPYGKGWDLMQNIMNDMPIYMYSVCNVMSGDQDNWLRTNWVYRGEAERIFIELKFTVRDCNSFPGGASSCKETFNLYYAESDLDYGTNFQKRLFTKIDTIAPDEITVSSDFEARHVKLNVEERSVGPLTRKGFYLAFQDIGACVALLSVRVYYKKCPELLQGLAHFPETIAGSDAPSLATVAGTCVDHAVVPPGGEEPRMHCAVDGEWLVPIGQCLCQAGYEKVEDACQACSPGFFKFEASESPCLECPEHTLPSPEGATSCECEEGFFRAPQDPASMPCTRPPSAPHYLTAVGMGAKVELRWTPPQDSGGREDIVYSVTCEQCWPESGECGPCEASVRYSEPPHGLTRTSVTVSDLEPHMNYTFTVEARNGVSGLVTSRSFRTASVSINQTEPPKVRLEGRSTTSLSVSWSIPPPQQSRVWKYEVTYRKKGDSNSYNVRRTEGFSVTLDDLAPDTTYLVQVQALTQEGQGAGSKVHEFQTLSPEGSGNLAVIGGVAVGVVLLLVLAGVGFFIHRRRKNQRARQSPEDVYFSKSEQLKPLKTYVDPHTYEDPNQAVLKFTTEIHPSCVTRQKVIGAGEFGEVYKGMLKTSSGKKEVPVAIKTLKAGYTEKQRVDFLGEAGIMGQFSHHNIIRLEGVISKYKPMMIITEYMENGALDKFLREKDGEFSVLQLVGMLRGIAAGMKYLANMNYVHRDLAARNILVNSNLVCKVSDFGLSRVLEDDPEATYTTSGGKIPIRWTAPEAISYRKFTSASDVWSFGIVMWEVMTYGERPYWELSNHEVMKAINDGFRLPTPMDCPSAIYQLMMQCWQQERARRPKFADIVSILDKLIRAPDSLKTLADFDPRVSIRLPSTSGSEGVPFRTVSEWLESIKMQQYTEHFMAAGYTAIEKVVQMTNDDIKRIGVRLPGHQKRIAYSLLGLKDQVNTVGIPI
Chain of Ribosomal protein S6 kinase beta-1 (P23443 whole entry): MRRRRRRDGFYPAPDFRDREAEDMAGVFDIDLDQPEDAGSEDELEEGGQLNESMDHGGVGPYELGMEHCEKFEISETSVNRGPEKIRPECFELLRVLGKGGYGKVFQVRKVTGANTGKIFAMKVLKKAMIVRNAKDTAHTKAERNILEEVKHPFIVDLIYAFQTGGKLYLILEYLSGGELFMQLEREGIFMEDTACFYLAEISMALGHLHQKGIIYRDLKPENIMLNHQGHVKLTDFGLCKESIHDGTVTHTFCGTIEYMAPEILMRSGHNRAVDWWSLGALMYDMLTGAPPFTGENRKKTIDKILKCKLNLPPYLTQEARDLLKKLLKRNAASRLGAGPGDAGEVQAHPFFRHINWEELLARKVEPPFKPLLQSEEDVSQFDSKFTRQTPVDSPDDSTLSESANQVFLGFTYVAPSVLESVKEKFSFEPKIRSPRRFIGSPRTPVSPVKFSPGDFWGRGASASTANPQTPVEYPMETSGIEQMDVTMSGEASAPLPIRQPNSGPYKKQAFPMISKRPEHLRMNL
Chain of Tyrosine-protein kinase ITK/TSK (Q08881 whole entry): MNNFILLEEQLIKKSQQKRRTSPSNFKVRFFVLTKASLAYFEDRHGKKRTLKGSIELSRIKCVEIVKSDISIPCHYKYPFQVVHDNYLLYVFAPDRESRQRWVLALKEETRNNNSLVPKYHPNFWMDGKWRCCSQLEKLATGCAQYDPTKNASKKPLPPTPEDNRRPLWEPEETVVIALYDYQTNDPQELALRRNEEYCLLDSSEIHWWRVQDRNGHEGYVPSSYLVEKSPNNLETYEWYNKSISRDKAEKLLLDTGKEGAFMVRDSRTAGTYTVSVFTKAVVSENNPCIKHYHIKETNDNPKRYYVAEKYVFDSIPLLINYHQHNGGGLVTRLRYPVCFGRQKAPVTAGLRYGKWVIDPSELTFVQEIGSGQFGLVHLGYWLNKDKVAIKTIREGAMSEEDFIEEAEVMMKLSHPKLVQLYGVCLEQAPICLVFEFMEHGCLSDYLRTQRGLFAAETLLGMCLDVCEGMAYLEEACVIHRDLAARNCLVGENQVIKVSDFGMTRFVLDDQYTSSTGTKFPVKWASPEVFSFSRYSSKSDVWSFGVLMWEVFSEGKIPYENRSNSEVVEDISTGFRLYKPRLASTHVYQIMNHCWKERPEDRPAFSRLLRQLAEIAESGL
Chain of Proto-oncogene tyrosine-protein kinase Src (P12931 2-536 limits assumed): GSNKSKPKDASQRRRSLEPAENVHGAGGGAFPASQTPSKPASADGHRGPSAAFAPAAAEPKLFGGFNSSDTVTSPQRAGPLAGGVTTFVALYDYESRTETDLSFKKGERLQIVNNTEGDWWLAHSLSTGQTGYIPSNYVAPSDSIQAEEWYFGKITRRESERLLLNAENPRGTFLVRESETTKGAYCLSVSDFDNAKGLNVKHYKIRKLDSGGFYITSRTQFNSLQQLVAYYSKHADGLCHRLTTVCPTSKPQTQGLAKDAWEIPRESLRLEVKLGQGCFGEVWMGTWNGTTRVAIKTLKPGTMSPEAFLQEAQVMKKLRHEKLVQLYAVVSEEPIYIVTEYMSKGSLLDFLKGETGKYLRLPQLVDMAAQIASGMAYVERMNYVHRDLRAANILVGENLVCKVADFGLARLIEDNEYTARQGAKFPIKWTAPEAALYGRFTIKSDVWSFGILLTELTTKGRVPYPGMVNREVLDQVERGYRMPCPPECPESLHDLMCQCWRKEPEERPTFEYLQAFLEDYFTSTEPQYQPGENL

On to `C[C@@H]1CCN(C(=O)CC#N)C[C@@H]1n1ccc2cnc3[nH]ccc3c21`, for which the Vd in data set [1] is 1.52 L/kg. Moreover, the concentration for half-maximal inhibition (IC50) in data set [2], in [3], in data set [4], in data set [5], in data set [7] and in data set [9] was greater than 1000 nM throughout. The results for the 50% inhibitory concentration (IC50) in data set [11] and in data set [14] were greater than 1000 nM and 0.3 nM, respectively. For the same compound, the permeability in [6] is recorded as 20 10^-6 cm/s. The half-life in [8] was 1.64 h. Besides, the MST in data set [10] is 21 days; in [12] it was 9 days. Also, the Tmax in data set [13] turned out to be 0.5 h.
